One assay addresses T1, CDK7 (Homo sapiens, UniProt P50613).
T1 construct: purchased ThermoFisher (Waltham, Mass.)
As to the kind of experiment: Lance TR-FRET kinase assay, CDK7. In kind it is biochemical. Conditions: ATP 50 μM, 60 min; for IC50: read-out: CDK 7 inhibitory activity (IC50). The protocol:
(§1) Inhibitory activity of compounds against CDK1/2/4/5/6/7 was assessed using Lance TR-FRET assay kits from Perkin Elmer Life Sciences (Waltham, Mass.). CDK1/2/4/5/6/7 enzymes were purchased from ThermoFisher (Waltham, Mass.). […] Final concentrations of substrates and DMSO were 100 nM and 0.5%, respectively. Concentrations of ATP and different CDK enzymes were adjusted accordingly to achieve optimal enzymatic activities. Final CDK concentrations were 100, 500, 600, 100, 50, and 200 ng/well and ATP concentrations were 30, 50, 100, 20, 100, and 50 μM for CDK1/2/4/5/6/7, respectively. Assay plates were covered to protect from light and spun for 1 min at 700 RPM. Reactions were allowed to perform for 60 minutes in dark with gentle shaking at room temperature after which 5 μL of 40 mM EDTA in detection buffer was added to stop reactions followed 5 μL of the Eu labeled antibodies giving final concentrations of 2 nM to detect the phosphorylation of the peptide substrates. […] The percent of inhibition was calculated from the means of data points using the formula: 100−(Signalcompound−NoSignalbackground)*100/(Signalvehicle−NoSignalbackground). The IC50s were determined with GraphPad Prism by the non-linear sigmoidal curve fitting of data from 10 doses.

The target of the next assay is T2, CDK5 (Homo sapiens, UniProt Q00535).
T2 construct: purchased ThermoFisher (Waltham, Mass.)
As to the kind of experiment: Lance TR-FRET kinase assay, CDK5. The assay is classed as biochemical. The following applies: ATP 20 μM, 60 min, read-out: CDK 5 inhibitory activity (IC50). The protocol:
(§2) Time Resolved-Fluorescent Resonance Energy Transfer (TR-FRET) was used to determine inhibitory ability of compounds A1˜A19, B1s and B1˜B12 against the enzymatic activity of CDK1, CDK2, CDK4, CDK5, CDK6, CDK7, and CDK9.
(§3) Inhibitory activity of compounds against CDK1/2/4/5/6/7 was assessed using Lance TR-FRET assay kits from Perkin Elmer Life Sciences (Waltham, Mass.). CDK1/2/4/5/6/7 enzymes were purchased from ThermoFisher (Waltham, Mass.). 2.5 μL of compound solutions and 2.5 μL of enzyme solutions in kinase assay buffer, which was 50 mM HEPES (pH 7.5) with 1 mM EGTA, 1 mM MgCl2, 2 mM DTT, and 0.01% Tween-20, were added into a white OptiPlate-384 plate followed by adding 5 μL of fluorescently labeled peptide substrates (Ulight-4E-BP1 for CDK4/6 and Ulight-MBP for […]) and ATP mixture solutions. Final concentrations of substrates and DMSO were 100 nM and 0.5%, respectively. Concentrations of ATP and different CDK enzymes were adjusted accordingly to achieve optimal enzymatic activities. Final CDK concentrations were 100, 500, 600, 100, 50, and 200 ng/well and ATP concentrations were 30, 50, 100, 20, 100, and 50 μM for CDK1/2/4/5/6/7, respectively. Assay plates were covered to protect from light and spun for 1 min at 700 RPM. Reactions were allowed to perform for 60 minutes in dark with gentle shaking at room temperature after which 5 μL of 40 mM EDTA in detection buffer was added to stop reactions followed 5 μL of the Eu labeled antibodies giving final concentrations of 2 nM to detect the phosphorylation of the peptide substrates. Assay plates were read with the EnVision™ Multilabel Reader in TR-FRET mode (excitation at 320 nm and emission at 665 nm). The percent of inhibition was calculated from the means of data points using the formula: 100−(Signalcompound−NoSignalbackground)*100/(Signalvehicle−NoSignalbackground). The IC50s were determined with GraphPad Prism by the non-linear sigmoidal curve fitting of data from 10 doses.

For a further assay, the target named is T3, CDK6 (Homo sapiens, UniProt Q00534).
T3 construct: purchased ThermoFisher (Waltham, Mass.)
As to the kind of experiment: Lance TR-FRET kinase assay, CDK6. In kind it is biochemical. The protocol: as §2, §3

The target of another assay is T4, CDK2 (Homo sapiens, UniProt P24941).
T4 construct: purchased ThermoFisher (Waltham, Mass.)
Nature of the assay: Lance TR-FRET kinase assay, CDK2. The assay is classed as biochemical. The following applies: ATP 50 μM, 60 min, read-out: CDK 2 inhibitory activity (IC50). The protocol: as §2, §3

For another assay, the target named is T5, CDK9/cyclin T1 (Homo sapiens, UniProt P50750).
T5 construct: purchased ThermoFisher (Waltham, Mass.)
Nature of the assay: LanthaScreen Eu kinase binding assay, CDK9. Conditions: tracer 236 displacement, CDK9/cyclin T1 5 nM, 1 hour; read-out: CDK 9 inhibitory activity (IC50). The protocol:
as §2
The CDK9 kinase inhibitory activity of compounds was tested in the LanthaScreen Eu kinase binding assay from ThermoFisher. LanthaScreen® Eu Kinase binding assays are based on the binding and displacement of a proprietary, Alexa Fluor® 647-labeled, ATP-competitive kinase inhibitor scaffold (kinase tracer) to CDK9. CDK9/cyclin T1, Kinase tracer 236 and LanthaScreen® Eu-anti-His Antibody were purchased form ThermoFisher (Waltham, Mass.). 5 μL of CDK9/cyclin T1 (final 5 nM)/antibody (final 2 nM) mixture, 5 μL of compound in kinase buffer, and 5 μL of tracer (final 30 nM) were added to wells of a white OptiPlate-384 plate in this specific order. Assay plates were covered to protect from light, spun for 1 min at 700 RPM and incubated at room temperature for 1 hour. Assay plates were read with the EnVision™ Multilabel Reader in TR-FRET mode (excitation at 320 nm and emission at 665 nm). The percent of inhibition was calculated from the means of data points using the formula: 100−(Signalcompound−NoSignalbackgound)*100/(Signalvehicle−NoSignalbackground). The IC50s were determined with GraphPad Prism by the non-linear sigmoidal curve fitting of data from 10 doses.

A further assay addresses T6, CDK1 (Homo sapiens, UniProt P06493).
T6 construct: purchased ThermoFisher (Waltham, Mass.)
As to the kind of experiment: Lance TR-FRET kinase assay, CDK1. The assay is classed as biochemical. Conditions: ATP 30 μM, 60 min, read-out: CDK 1 inhibitory activity (IC50). The protocol: as §2, §3

Another assay deals with T7, CDK4 (Homo sapiens, UniProt P11802).
T7 construct: purchased ThermoFisher (Waltham, Mass.)
Nature of the assay: Lance TR-FRET kinase assay, CDK4. The assay is classed as biochemical. Conditions: ATP 100 μM, 60 min, read-out: CDK 4 inhibitory activity (IC50). The procedure:
as §1

Where a name gives a salt, the structure may show the parent alone.

T6 sequence (P06493 whole entry): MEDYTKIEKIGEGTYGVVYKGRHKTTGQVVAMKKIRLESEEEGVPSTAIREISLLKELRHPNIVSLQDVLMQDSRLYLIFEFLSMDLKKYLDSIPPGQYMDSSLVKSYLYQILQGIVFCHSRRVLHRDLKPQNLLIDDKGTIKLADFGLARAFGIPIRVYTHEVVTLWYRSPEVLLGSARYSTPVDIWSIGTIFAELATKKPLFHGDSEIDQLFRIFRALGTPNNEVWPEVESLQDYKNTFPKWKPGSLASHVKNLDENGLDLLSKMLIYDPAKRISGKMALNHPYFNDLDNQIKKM
T6 sequence (P14635 whole entry partner): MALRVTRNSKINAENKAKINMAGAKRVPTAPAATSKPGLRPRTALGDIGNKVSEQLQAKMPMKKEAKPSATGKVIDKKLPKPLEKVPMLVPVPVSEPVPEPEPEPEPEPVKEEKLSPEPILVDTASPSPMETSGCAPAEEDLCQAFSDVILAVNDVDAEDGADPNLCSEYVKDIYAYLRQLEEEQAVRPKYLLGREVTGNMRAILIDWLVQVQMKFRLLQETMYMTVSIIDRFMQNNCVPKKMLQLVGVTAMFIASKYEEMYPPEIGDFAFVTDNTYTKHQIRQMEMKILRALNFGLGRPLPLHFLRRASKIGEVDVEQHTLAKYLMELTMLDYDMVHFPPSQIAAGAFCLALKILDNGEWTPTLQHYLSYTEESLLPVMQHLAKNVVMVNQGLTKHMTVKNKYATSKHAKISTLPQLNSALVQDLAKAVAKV
T7 sequence (P11802 whole entry): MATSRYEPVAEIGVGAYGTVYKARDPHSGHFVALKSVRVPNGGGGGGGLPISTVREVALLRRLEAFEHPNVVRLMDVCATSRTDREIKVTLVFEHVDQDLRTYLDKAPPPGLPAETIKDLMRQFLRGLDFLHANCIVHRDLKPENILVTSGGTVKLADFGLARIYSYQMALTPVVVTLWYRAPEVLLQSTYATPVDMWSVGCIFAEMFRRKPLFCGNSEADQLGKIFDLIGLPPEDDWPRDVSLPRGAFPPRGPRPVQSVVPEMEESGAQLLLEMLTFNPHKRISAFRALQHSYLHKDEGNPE
T7 sequence (P24385 whole entry partner): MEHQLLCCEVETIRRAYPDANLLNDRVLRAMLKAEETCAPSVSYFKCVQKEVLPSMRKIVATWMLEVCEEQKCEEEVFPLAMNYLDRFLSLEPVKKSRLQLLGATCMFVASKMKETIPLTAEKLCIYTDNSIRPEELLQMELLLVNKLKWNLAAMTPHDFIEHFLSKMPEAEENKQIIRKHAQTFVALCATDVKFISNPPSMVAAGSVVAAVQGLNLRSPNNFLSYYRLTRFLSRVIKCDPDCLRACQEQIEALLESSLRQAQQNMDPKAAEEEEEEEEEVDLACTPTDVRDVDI
T3 sequence (Q00534 whole entry): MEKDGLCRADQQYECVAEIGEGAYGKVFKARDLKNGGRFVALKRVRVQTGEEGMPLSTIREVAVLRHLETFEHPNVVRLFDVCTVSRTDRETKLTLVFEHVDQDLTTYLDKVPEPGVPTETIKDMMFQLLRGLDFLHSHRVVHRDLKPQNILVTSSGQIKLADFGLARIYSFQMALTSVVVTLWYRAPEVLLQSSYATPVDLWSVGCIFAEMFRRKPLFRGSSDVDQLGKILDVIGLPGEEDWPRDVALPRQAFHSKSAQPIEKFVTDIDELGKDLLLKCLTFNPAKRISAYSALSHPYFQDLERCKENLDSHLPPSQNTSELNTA
T3 sequence (P24385 whole entry partner): as the sequence (P24385 whole entry partner) above
T5 sequence (P50750 whole entry): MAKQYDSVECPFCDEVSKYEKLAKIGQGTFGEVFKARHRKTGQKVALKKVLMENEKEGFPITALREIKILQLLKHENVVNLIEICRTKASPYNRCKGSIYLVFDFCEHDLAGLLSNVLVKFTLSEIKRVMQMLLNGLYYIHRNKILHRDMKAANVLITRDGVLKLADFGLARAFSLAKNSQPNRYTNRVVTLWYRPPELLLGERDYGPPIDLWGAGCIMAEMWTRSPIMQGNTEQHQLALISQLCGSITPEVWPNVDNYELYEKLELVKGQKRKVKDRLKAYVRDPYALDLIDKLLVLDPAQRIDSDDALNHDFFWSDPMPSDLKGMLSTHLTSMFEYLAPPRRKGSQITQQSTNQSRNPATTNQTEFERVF
T5 sequence (O60563 whole entry partner): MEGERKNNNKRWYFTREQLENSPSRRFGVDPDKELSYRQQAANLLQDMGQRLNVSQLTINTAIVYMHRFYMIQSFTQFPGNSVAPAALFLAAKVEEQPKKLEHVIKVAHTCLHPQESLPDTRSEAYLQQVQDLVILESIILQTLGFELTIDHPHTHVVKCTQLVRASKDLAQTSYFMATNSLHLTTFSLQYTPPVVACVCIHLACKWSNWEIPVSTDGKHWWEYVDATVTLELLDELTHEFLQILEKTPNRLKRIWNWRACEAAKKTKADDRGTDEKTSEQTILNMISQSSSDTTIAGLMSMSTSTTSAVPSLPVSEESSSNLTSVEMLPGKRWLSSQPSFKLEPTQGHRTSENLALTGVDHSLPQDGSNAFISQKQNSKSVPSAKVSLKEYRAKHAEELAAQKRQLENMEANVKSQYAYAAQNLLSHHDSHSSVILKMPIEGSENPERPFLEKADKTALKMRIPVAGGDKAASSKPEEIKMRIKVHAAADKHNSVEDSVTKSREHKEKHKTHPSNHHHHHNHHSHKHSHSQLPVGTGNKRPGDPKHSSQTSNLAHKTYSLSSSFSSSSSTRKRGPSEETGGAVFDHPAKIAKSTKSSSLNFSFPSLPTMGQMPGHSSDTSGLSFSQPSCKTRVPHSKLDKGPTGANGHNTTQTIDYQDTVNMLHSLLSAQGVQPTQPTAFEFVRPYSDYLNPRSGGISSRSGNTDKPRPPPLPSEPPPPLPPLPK
T1 sequence (P50613 whole entry): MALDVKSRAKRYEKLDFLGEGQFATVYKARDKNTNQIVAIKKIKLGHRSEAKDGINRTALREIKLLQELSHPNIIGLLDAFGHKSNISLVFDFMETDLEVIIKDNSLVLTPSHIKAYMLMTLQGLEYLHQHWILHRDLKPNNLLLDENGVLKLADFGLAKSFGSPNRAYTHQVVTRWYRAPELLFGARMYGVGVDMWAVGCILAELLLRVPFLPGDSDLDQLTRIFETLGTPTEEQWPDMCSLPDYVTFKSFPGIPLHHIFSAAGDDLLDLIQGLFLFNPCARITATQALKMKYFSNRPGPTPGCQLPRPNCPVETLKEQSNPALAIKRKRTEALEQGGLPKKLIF
T1 sequence (P51946 whole entry partner): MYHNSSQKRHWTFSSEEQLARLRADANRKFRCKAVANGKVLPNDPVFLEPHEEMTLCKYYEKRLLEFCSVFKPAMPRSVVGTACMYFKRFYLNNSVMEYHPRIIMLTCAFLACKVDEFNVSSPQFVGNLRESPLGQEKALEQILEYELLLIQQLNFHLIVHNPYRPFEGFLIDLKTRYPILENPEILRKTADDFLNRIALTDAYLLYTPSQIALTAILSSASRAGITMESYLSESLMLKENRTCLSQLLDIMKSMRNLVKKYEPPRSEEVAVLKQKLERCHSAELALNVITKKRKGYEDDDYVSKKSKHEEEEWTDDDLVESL
T1 sequence (P51948 whole entry partner): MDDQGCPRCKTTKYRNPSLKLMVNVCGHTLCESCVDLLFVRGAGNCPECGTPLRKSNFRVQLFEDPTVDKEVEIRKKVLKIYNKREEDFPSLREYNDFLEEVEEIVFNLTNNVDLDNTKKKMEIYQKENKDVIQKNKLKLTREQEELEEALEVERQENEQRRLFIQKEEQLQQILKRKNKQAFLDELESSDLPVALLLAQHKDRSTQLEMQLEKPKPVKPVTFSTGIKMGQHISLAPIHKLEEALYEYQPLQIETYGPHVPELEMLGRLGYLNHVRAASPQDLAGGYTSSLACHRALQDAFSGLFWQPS
T2 sequence (Q00535 whole entry): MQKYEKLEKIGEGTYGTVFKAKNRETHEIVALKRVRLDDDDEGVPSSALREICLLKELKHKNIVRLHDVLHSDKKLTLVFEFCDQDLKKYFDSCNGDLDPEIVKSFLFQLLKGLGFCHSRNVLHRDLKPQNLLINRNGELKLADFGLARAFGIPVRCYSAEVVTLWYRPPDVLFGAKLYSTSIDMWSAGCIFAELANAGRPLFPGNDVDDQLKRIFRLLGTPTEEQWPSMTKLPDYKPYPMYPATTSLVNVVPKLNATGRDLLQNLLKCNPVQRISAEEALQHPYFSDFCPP
T2 sequence (Q15078 whole entry partner): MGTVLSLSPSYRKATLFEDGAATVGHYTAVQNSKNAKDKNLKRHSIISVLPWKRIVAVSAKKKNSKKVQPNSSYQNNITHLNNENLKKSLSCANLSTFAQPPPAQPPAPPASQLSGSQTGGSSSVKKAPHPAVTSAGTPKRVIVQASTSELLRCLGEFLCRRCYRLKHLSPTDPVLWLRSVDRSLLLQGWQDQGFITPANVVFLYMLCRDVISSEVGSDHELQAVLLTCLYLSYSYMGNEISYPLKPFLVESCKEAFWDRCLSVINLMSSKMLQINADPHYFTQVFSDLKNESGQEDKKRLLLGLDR

With `CN(C)C(=O)c1sc2cnc(Nc3ccc(N4CCNCC4)cn3)cc2c1C1CCCC1` [Compound A1, 3-cyclopentyl-N,N-dimethyl-5-((5-(piperazin-1-yl)pyridin-2-yl)amino)thieno[2,3-c]pyridine-2-carboxamide], the IC50 at CDK7 was determined as 1100 nM; on CDK5, 262 nM; against CDK6, 0.66 nM; at CDK2, 346 nM; on CDK9/cyclin T1, 5.3 nM; at CDK1, 162 nM. For the same molecule, on CDK4, the concentration for half-maximal inhibition (IC50) turned out to be 1.2 nM.
For the molecule `N#Cc1sc2cnc(Nc3ccc(N4CCNCC4)cn3)cc2c1C1CCCC1` [Compound B1s, 3-cyclopentyl-5-((5-(piperazin-1-yl)pyridin-2-yl)amino)thieno[2,3-c]pyridine-2-carbonitrile hydrochloride], the IC50 on CDK7 turned out to be 7.2 nM; at CDK2 it was 9.2 nM; on CDK9/cyclin T1, 0.6 nM; at CDK1 it was 8.7 nM; at CDK4, 0.9 nM.
Consider `N#Cc1sc2cnc(Nc3ccc(N4CCNCC4)nc3)cc2c1C1CCCC1` [Compound B2, 3-cyclopentyl-5-((6-(piperazin-1-yl)pyridin-3-yl)amino)thieno[2,3-c]pyridine-2-carbonitrile], for which the IC50 was 53.9 nM on CDK7; 1 nM at CDK6; 13.3 nM at CDK2; 6.6 nM at CDK9/cyclin T1; 77.4 nM at CDK1; 2.4 nM at CDK4.
On to `N#Cc1sc2cnc(Nc3ccc(N4CCNCC4)cc3)cc2c1C1CCCC1` [Compound B3, 3-cyclopentyl-5-((4-(piperazin-1-yl)phenyl)amino)thieno[2,3-c]pyridine-2-carbonitrile], for which the IC50 amounted to 31.4 nM at CDK7; 0.2 nM on CDK6; 5.2 nM on CDK2; 1.8 nM on CDK9/cyclin T1; 15.1 nM on CDK1; 1.9 nM on CDK4.
Consider `CN1CCN(c2ccc(Nc3cc4c(C5CCCC5)c(C#N)sc4cn3)cc2)CC1` [Compound B4, 3-cyclopentyl-5-((4-(4-methylpiperazin-1-yl)phenyl)amino)thieno[2,3-c]pyridine-2-carbonitrile], for which the IC50 at CDK7 worked out at 47 nM; at CDK6 it was 0.7 nM; on CDK2 it was 10.4 nM; on CDK9/cyclin T1 it was 8.6 nM; at CDK1, 31.5 nM; on CDK4, 1.9 nM.
On to `CN1CCN(c2ccc(Nc3cc4c(C5CCCC5)c(C#N)sc4cn3)nc2)CC1` [Compound B5, 3-cyclopentyl-5-((5-(4-methylpiperazin-1-yl)pyridin-2-yl)amino)thieno[2,3-c]pyridine-2-carbonitrile], for which the half-maximal inhibitory concentration (IC50) at CDK7 stood at 22.1 nM; at CDK6 it was 0.3 nM; on CDK2, 3.3 nM; at CDK9/cyclin T1 it was 1 nM; at CDK1, 9.1 nM; on CDK4, 0.7 nM.
Regarding `N#Cc1sc2cnc(Nc3ccc(N4CCOCC4)cc3)cc2c1C1CCCC1` [Compound B6, 3-cyclopentyl-5-((4-morpholinophenyl)amino)thieno[2,3-c]pyridine-2-carbonitrile], on CDK7, the “CDK 7 inhibitory activity (IC50)” value was “inactive”. Further, the IC50 worked out at 19 nM against CDK6; 39.6 nM at CDK2; 951 nM on CDK9/cyclin T1; 1680 nM at CDK1; 222 nM at CDK4.
Regarding `N#Cc1sc2cnc(Nc3ccc(N4CCOCC4)nc3)cc2c1C1CCCC1` [Compound B7, 3-cyclopentyl-5-((6-morpholinopyridin-3-yl)amino)thieno[2,3-c]pyridine-2-carbonitrile], on CDK7, the “CDK 7 inhibitory activity (IC50)” value is “inactive”. For the same molecule, the IC50 on CDK6 worked out at 19.4 nM; at CDK2 it was 19.4 nM; at CDK9/cyclin T1, 95.6 nM; on CDK1, 324 nM; at CDK4, 61.9 nM.
`N#Cc1sc2cnc(Nc3cnc(N4CCOCC4)nc3)cc2c1C1CCCC1` [Compound B8, 3-cyclopentyl-5-((2-morpholinopyrimidin-5-yl)amino)thieno[2,3-c]pyridine-2-carbonitrile]: on CDK7, the “CDK 7 inhibitory activity (IC50)” value is “inactive”. Moreover, the IC50 on CDK6 was found to be 791 nM; on CDK2 it was 824 nM; on CDK9/cyclin T1 it was 4590 nM; at CDK1 it was 22000 nM; on CDK4, 8660 nM.
`CN1CCN(c2cccc(Nc3cc4c(C5CCCC5)c(C#N)sc4cn3)c2)CC1` [Compound B9, 3-cyclopentyl-5-((3-(4-methylpiperazin-1-yl)phenyl)amino)thieno[2,3-c]pyridine-2-carbonitrile]: the IC50 on CDK7 worked out at 872 nM; against CDK6, 120 nM; on CDK2, 70.8 nM; on CDK9/cyclin T1, 96.5 nM; on CDK1 it was 170 nM; at CDK4, 582 nM.
With `N#Cc1sc2cnc(Nc3cccc(N4CCOCC4)c3)cc2c1C1CCCC1` [Compound B10, 3-cyclopentyl-5-((3-morpholinophenyl)amino)thieno[2,3-c]pyridine-2-carbonitrile], the “CDK 7 inhibitory activity (IC50)” value at CDK7 was “inactive”. For the same molecule, the IC50 against CDK6 was 838 nM; on CDK2, 308 nM; at CDK9/cyclin T1, 308 nM; at CDK1, 834 nM; on CDK4, 1540 nM.
Turning to `CS(=O)(=O)N1CCN(c2ccc(Nc3cc4c(C5CCCC5)c(C#N)sc4cn3)nc2)CC1` [Compound B11, 3-cyclopentyl-5-((5-(4-(methylsulfonyl)piperazin-1-yl)pyridin-2-yl)amino)thieno[2,3-c]pyridine-2-carbonitrile], the “CDK 7 inhibitory activity (IC50)” value on CDK7 was “inactive”. Besides, the half-inhibitory concentration (IC50) turned out to be 5.5 nM on CDK6; 49.9 nM on CDK2; 8.1 nM on CDK9/cyclin T1; 101 nM at CDK1; 17.7 nM at CDK4.
For the molecule `CC(=O)N1CCN(c2ccc(Nc3cc4c(C5CCCC5)c(C#N)sc4cn3)nc2)CC1` [Compound B12, 5-((5-(4-acetylpiperazin-1-yl)pyridin-2-yl)amino)-3-cyclopentylthieno[2,3-c]pyridine-2-carbonitrile], the IC50 amounted to 9790 nM at CDK7; 1.4 nM on CDK6; 10.3 nM on CDK2; 2.5 nM at CDK9/cyclin T1; 26.2 nM on CDK1; 4.1 nM on CDK4.

The record behind these values is patent US20170152269A1, “FUSED BICYCLIC COMPOUNDS AND THEIR USE AS CDK INHIBITORS” (priority 2016, published 2017).
